Consider seven compounds from patent publication US10829520B2, “Beta-hairpin peptidomimetics” (POLYPHOR AG, priority 2015, dated 2020).

Where a SMILES comes first, the peptide text is derived from it. Bridges are numbered along the chain shown (N, C = ends). [ ]: non-standard residue; d: D form. Tle = CC(C)(C)[C@H](N)C(=O)O; Nle = CCCC[C@H](N)C(=O)O; Orn = NCCC[C@H](N)C(=O)O; Dab = NCC[C@H](N)C(=O)O; Dap = NC[C@H](N)C(=O)O

Holding throughout (type): cell-based
One series has as its system Escherichia coli 926415. The conditions noted are these: 926415.
The test system of series [1] is Escherichia coli ATCC 25922. As to conditions: ATCC 25922. Summed up:
(§1)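 Peptide MICs were determined by CLSI broth microdilution in cation-adjusted Mueller-Hinton II broth with 0.002% polysorbate 80, inoculum approx. 10^6 CFU/mL. Two-fold serial dilutions of peptide were tested. MIC was the lowest concentration (μg/mL) with no visible growth after 18-20 hours at 35° C.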

The test system of series [2] is Klebsiella pneumoniae SSI #3010. The conditions noted are these: SSI #3010. An outline of the steps:
as §1

In series [3] the test system is Acinetobacter baumannii DSM 30008. As to conditions: DSM 30008. An outline of the steps:
as §1

Series [4] relates to Klebsiella pneumoniae 968733. The conditions noted are these: 968733.
The test system of series [5] is Acinetobacter baumannii 872842. As to conditions: 872842.
The test system of series [6] is Pseudomonas aeruginosa ATCC 27853. The conditions noted are these: ATCC 27853. An outline of the steps: as §1
The test system of series [7] is human red blood cells (hRBC). Description: Hemolysis of human red blood cells. The conditions noted are these: red cells of human, 1 h, 100 μg/mL. Summed up:
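Peptides at 100 μg/mL were incubated with PBS-washed fresh human erythrocytes (20% v/v, ~0.9×10^9 cells/mL final) for 1 h at 37° C. with shaking. Supernatant OD540 was read after 8-fold dilution; percent hemolysis was expressed relative to the 2.5% Triton X-100 full-lysis control, with PBS/0.001% acetic acid as 0%.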

For `CCCC[C@@H]1NC(=O)[C@@H]2CCCN2C(=O)[C@H]2CCCN2C(=O)[C@H](CO)NC(=O)[C@H](C)NC(=O)[C@H](C(C)(C)C)NC(=O)[C@@H](NC(=O)[C@H](Cc2c[nH]c3ccccc23)NC(=O)[C@H](CCN)NC(C)=O)CSSC[C@@H](C(=O)N[C@@H](CCCN)C(=O)N[C@H](C(=O)N[C@@H](CCN)C(=O)N[C@H]2CCNC(=O)[C@H]([C@@H](C)O)NC(=O)[C@H](CCN)NC(=O)[C@H](CCN)NC(=O)[C@H](CC(C)C)NC(=O)[C@@H](Cc3ccccc3)NC(=O)[C@H](CCN)NC2=O)[C@@H](C)O)NC(=O)[C@H](Cc2ccc(O)cc2)NC(=O)[C@H](CO)NC1=O` [Ex. 36] (Ac-[Dab]WC[Tle]AS[dP]P[Nle]SYC[Orn]T[Dab][Dab][Dab][dF]L[Dab][Dab]T; disulfide 3-12; lactam 16-C), the “Escherichia coli 926415 MIC” value with Escherichia coli 926415 is 0.25 µg/mL. The “Escherichia coli ATCC 25922 MIC” value in series [1] turned out to be 0.25 µg/mL. In addition, the “Klebsiella pneumoniae SSI #3010 MIC” value in series [2] turned out to be 0.25 µg/mL. In addition, the “Acinetobacter baumannii DSM 30008 MIC” value in series [3] worked out at 0.25 µg/mL. Further, the “Klebsiella pneumoniae 968733 MIC” value in series [4] worked out at 0.5 µg/mL. The “Acinetobacter baumannii 872842 MIC” value in series [5] came out at 0.5 µg/mL. In series [6], the “Pseudomonas aeruginosa ATCC 27853 MIC” value is 0.5 µg/mL. Moreover, in series [7], the “Hemolysis at 100 μg/mL” value is reported as less than 1%.

For the compound `CCCC[C@@H]1NC(=O)[C@@H]2CCCN2C(=O)[C@H]2CCCN2C(=O)[C@H](CO)NC(=O)[C@H](C)NC(=O)[C@H](C(C)(C)C)NC(=O)[C@@H](NC(=O)[C@H](Cc2c[nH]c3ccccc23)NC(=O)[C@@H](N)CN)CSSC[C@@H](C(=O)N[C@@H](CCN)C(=O)N[C@H](C(=O)N[C@@H](CCN)C(=O)N[C@H]2CCNC(=O)[C@H]([C@@H](C)O)NC(=O)[C@H](CCN)NC(=O)[C@H](CCN)NC(=O)[C@H](CC(C)C)NC(=O)[C@@H](Cc3ccccc3)NC(=O)[C@H](CCN)NC2=O)[C@@H](C)O)NC(=O)[C@H](Cc2ccc(O)cc2)NC(=O)[C@H](CO)NC1=O` [Ex. 37] (H-[Dap]WC[Tle]AS[dP]P[Nle]SYC[Dab]T[Dab][Dab][Dab][dF]L[Dab][Dab]T; disulfide 3-12; lactam 16-C), in the series with Escherichia coli 926415, the “Escherichia coli 926415 MIC” value is 0.5 µg/mL. The “Escherichia coli ATCC 25922 MIC” value in series [1] stood at 0.125 µg/mL. For the same compound, the “Klebsiella pneumoniae SSI #3010 MIC” value in series [2] amounted to 0.125 µg/mL. Moreover, in series [3], the “Acinetobacter baumannii DSM 30008 MIC” value worked out at 0.125 µg/mL. In series [4], the “Klebsiella pneumoniae 968733 MIC” value was 2 µg/mL. Also, the “Acinetobacter baumannii 872842 MIC” value in series [5] is 0.5 µg/mL. Besides, in series [6], the “Pseudomonas aeruginosa ATCC 27853 MIC” value stood at 0.5 µg/mL. The “Hemolysis at 100 μg/mL” value in series [7] was 2%.

On to `CCCC[C@@H]1NC(=O)[C@@H]2CCCN2C(=O)[C@H]2CCCN2C(=O)[C@H](CO)NC(=O)[C@H](C)NC(=O)[C@H](C(C)(C)C)NC(=O)[C@@H](NC(=O)[C@H](Cc2c[nH]c3ccccc23)NC(=O)[C@@H](N)CCCN)CSSC[C@@H](C(=O)N[C@@H](CCN)C(=O)N[C@H](C(=O)N[C@@H](CCN)C(=O)N[C@H]2CCNC(=O)[C@H]([C@@H](C)O)NC(=O)[C@H](CCN)NC(=O)[C@H](CCN)NC(=O)[C@H](CC(C)C)NC(=O)[C@@H](Cc3ccccc3)NC(=O)[C@H](CCN)NC2=O)[C@@H](C)O)NC(=O)[C@H](Cc2ccc(O)cc2)NC(=O)[C@H](CO)NC1=O` [Ex. 38] (H-[Orn]WC[Tle]AS[dP]P[Nle]SYC[Dab]T[Dab][Dab][Dab][dF]L[Dab][Dab]T; disulfide 3-12; lactam 16-C), for which the “Escherichia coli 926415 MIC” value with Escherichia coli 926415 is 0.125 µg/mL. Further, the “Escherichia coli ATCC 25922 MIC” value in series [1] came out at 0.25 µg/mL. In series [2], the “Klebsiella pneumoniae SSI #3010 MIC” value is 0.25 µg/mL. Moreover, the “Acinetobacter baumannii DSM 30008 MIC” value in series [3] came to 0.5 µg/mL. In addition, in series [4], the “Klebsiella pneumoniae 968733 MIC” value stood at 2 µg/mL. The “Acinetobacter baumannii 872842 MIC” value in series [5] came to 0.5 µg/mL. For the same compound, the “Pseudomonas aeruginosa ATCC 27853 MIC” value in series [6] is 0.25 µg/mL. Also, the “Hemolysis at 100 μg/mL” value in series [7] came out at 1%.

In the case of `CCCC[C@@H]1NC(=O)[C@@H]2CCCN2C(=O)[C@H]2CCCN2C(=O)[C@H](CO)NC(=O)[C@H](C)NC(=O)[C@H](C(C)(C)C)NC(=O)[C@@H](NC(=O)[C@H](Cc2c[nH]c3ccccc23)NC(=O)[C@@H](N)CCCNC(=N)N)CSSC[C@@H](C(=O)N[C@@H](CCN)C(=O)N[C@H](C(=O)N[C@@H](CCN)C(=O)N[C@H]2CCNC(=O)[C@H]([C@@H](C)O)NC(=O)[C@H](CCN)NC(=O)[C@H](CCN)NC(=O)[C@H](CC(C)C)NC(=O)[C@@H](Cc3ccccc3)NC(=O)[C@H](CCN)NC2=O)[C@@H](C)O)NC(=O)[C@H](Cc2ccc(O)cc2)NC(=O)[C@H](CO)NC1=O` [Ex. 39] (H-RWC[Tle]AS[dP]P[Nle]SYC[Dab]T[Dab][Dab][Dab][dF]L[Dab][Dab]T; disulfide 3-12; lactam 16-C), the “Escherichia coli 926415 MIC” value in the series with Escherichia coli 926415 was 0.25 µg/mL. In addition, the “Escherichia coli ATCC 25922 MIC” value in series [1] was 0.25 µg/mL. Besides, the “Klebsiella pneumoniae SSI #3010 MIC” value in series [2] came to 0.125 µg/mL. In addition, the “Acinetobacter baumannii DSM 30008 MIC” value in series [3] turned out to be 0.25 µg/mL. Further, the “Klebsiella pneumoniae 968733 MIC” value in series [4] was 2 µg/mL. For the same compound, the “Acinetobacter baumannii 872842 MIC” value in series [5] came out at 0.5 µg/mL. Also, the “Pseudomonas aeruginosa ATCC 27853 MIC” value in series [6] turned out to be 0.25 µg/mL. Moreover, the “Hemolysis at 100 μg/mL” value in series [7] came to 4%.

Consider `CCCC[C@@H]1NC(=O)[C@@H]2CCCN2C(=O)[C@H]2CCCN2C(=O)[C@H](CO)NC(=O)[C@H](C)NC(=O)[C@H](C(C)(C)C)NC(=O)[C@@H](NC(=O)[C@H](Cc2c[nH]c3ccccc23)NC(=O)[C@@H](N)CCC(=O)O)CSSC[C@@H](C(=O)N[C@@H](CCN)C(=O)N[C@H](C(=O)N[C@@H](CCN)C(=O)N[C@H]2CCNC(=O)[C@H]([C@@H](C)O)NC(=O)[C@H](CCN)NC(=O)[C@H](CCN)NC(=O)[C@H](CC(C)C)NC(=O)[C@@H](Cc3ccccc3)NC(=O)[C@H](CCN)NC2=O)[C@@H](C)O)NC(=O)[C@H](Cc2ccc(O)cc2)NC(=O)[C@H](CO)NC1=O` [Ex. 40] (H-EWC[Tle]AS[dP]P[Nle]SYC[Dab]T[Dab][Dab][Dab][dF]L[Dab][Dab]T; disulfide 3-12; lactam 16-C), for which, in the series with Escherichia coli 926415, the “Escherichia coli 926415 MIC” value was found to be 0.5 µg/mL. The “Escherichia coli ATCC 25922 MIC” value in series [1] was 0.125 µg/mL. Moreover, in series [2], the “Klebsiella pneumoniae SSI #3010 MIC” value is 0.25 µg/mL. In series [3], the “Acinetobacter baumannii DSM 30008 MIC” value is 0.25 µg/mL. The “Klebsiella pneumoniae 968733 MIC” value in series [4] was determined as 4 µg/mL. Besides, in series [5], the “Acinetobacter baumannii 872842 MIC” value was 0.125 µg/mL. The “Pseudomonas aeruginosa ATCC 27853 MIC” value in series [6] was 0.5 µg/mL. In series [7], the “Hemolysis at 100 μg/mL” value is 2%.

With `CCCC[C@@H]1NC(=O)[C@@H]2CCCN2C(=O)[C@H]2CCCN2C(=O)[C@H](CO)NC(=O)[C@H](C)NC(=O)[C@H](C(C)(C)C)NC(=O)[C@@H](NC(=O)[C@H](Cc2c[nH]c3ccccc23)NC(=O)[C@H](C)NC(C)=O)CSSC[C@@H](C(=O)N[C@@H](CCN)C(=O)N[C@H](C(=O)N[C@@H](CCN)C(=O)N[C@H]2CCNC(=O)[C@H]([C@@H](C)O)NC(=O)[C@H](CCN)NC(=O)[C@H](CCN)NC(=O)[C@H](CC(C)C)NC(=O)[C@@H](Cc3ccccc3)NC(=O)[C@H](CCN)NC2=O)[C@@H](C)O)NC(=O)[C@H](Cc2ccc(O)cc2)NC(=O)[C@H](CO)NC1=O` [Ex. 41] (Ac-AWC[Tle]AS[dP]P[Nle]SYC[Dab]T[Dab][Dab][Dab][dF]L[Dab][Dab]T; disulfide 3-12; lactam 16-C), in the series with Escherichia coli 926415, the “Escherichia coli 926415 MIC” value turned out to be 0.5 µg/mL. Further, in series [1], the “Escherichia coli ATCC 25922 MIC” value came out at 2 µg/mL. Moreover, the “Klebsiella pneumoniae SSI #3010 MIC” value in series [2] turned out to be 0.25 µg/mL. The “Acinetobacter baumannii DSM 30008 MIC” value in series [3] worked out at 0.5 µg/mL. In series [4], the “Klebsiella pneumoniae 968733 MIC” value came to 1 µg/mL. The “Acinetobacter baumannii 872842 MIC” value in series [5] worked out at 0.5 µg/mL. For the same compound, in series [6], the “Pseudomonas aeruginosa ATCC 27853 MIC” value came out at 0.5 µg/mL. The “Hemolysis at 100 μg/mL” value in series [7] is less than 1%.

As to `CCCC[C@@H]1NC(=O)[C@@H]2CCCN2C(=O)[C@H]2CCCN2C(=O)[C@H](CO)NC(=O)[C@H](C)NC(=O)[C@H](C(C)(C)C)NC(=O)[C@@H](NC(=O)[C@H](Cc2c[nH]c3ccccc23)NC(=O)[C@@H](N)CCN)CSSC[C@@H](C(=O)N[C@@H](CCN)C(=O)N[C@H](C(=O)N[C@@H](CCN)C(=O)N[C@H]2CCNC(=O)[C@H]([C@@H](C)O)NC(=O)[C@H](CCN)NC(=O)[C@H](CCN)NC(=O)[C@H](CC(C)C)NC(=O)[C@@H](Cc3ccccc3)NC(=O)[C@H](CCN)NC2=O)[C@@H](C)O)NC(=O)[C@H](Cc2ccc(O)cc2)NC(=O)[C@H](CO)NC1=O` [Ex. 42] (H-[Dab]WC[Tle]AS[dP]P[Nle]SYC[Dab]T[Dab][Dab][Dab][dF]L[Dab][Dab]T; disulfide 3-12; lactam 16-C), the “Escherichia coli 926415 MIC” value with Escherichia coli 926415 came out at 0.25 µg/mL. Moreover, the “Escherichia coli ATCC 25922 MIC” value in series [1] stood at 0.125 µg/mL. Moreover, in series [2], the “Klebsiella pneumoniae SSI #3010 MIC” value amounted to 0.25 µg/mL. For the same compound, the “Acinetobacter baumannii DSM 30008 MIC” value in series [3] was found to be 0.25 µg/mL. Moreover, in series [4], the “Klebsiella pneumoniae 968733 MIC” value worked out at 2 µg/mL. Besides, the “Acinetobacter baumannii 872842 MIC” value in series [5] turned out to be 0.25 µg/mL. Moreover, in series [6], the “Pseudomonas aeruginosa ATCC 27853 MIC” value came to 0.25 µg/mL. Besides, the “Hemolysis at 100 μg/mL” value in series [7] is on record as less than 1%.
